Assay results published in patent US9738610B2, “Indazole derivatives and uses thereof” (Whitehead Institute for Biomedical Research, priority 2012, dated 2017).
Entries after “also recorded” stand apart in the source; their conditions may differ.

How the values were obtained:
CaCi-8 = test: MIC of fluconazole against CaCi-8; format: cell-based; settings: Candida albicans; read-out: Minimum inhibitory concentration (MIC) against CaCi-8
Experimental: (§1) In order to identify non-fungitoxic chemosensitizers (“probes” or “probe compounds”) of C. albicans, compounds from the NIH's Molecular Libraries Small Molecule Repository (MLSMR) (mli.nih.gov/mli/secondary-menu/mlscn/ml-small-molecule-repository/) were evaluated in the screening cascade summarized in FIG. 3. The C. albicans strains used in the primary screen and secondary assay 1 (CaCi-2 and CaCi-8, respectively) are both clinical isolates that partially respond to fluconazole treatment (Redding et al., Clin. Infect. Dis. 1994, 18, 240-242). […] In the primary assay, CaCi-2 cells are exposed to 8 μg/mL fluconazole; this induces a basal level of 60-80% growth inhibition with additional suppression of the trailing growth associated with this particular strain (Redding et al., Clin. Infect. Dis. 1994, 18, 240-242).

[1] = tested on: Candida albicans strain SC5314; test: Cytotoxicity to fluconazole-sensitive strain SC5314; format: cell-based; settings: fluconazole alone
CaCi-2 = test: MIC of fluconazole against CaCi-2; format: cell-based; settings: Candida albicans; read-out: Minimum inhibitory concentration (MIC) against CaCi-2
Experimental: as §1

C. albicans CaCi-2 = test: CaCi-2 growth inhibition in the presence of 8 μg/ml fluconazole (Alamar Blue); format: cell-based, Candida albicans; settings: Candida albicans, CACI2; 8 μg/mL fluconazole alone in the primary assay; read-out: Basal level of growth inhibition of CaCi-2
[2] = tested on: Candida albicans strain CaCi-2; test: Cytotoxicity to fluconazole-resistant strain CaCi-2; format: cell-based; settings: fluconazole alone
[3] = biological target: cytochrome B of S. cerevisiae resistant to known antifungal agents (Saccharomyces cerevisiae, UniProt P00163, L275F); settings: FIG. 14A curve 3
Experimental: (§2) Compounds described herein were added to plates in a buffer containing 50 mM Tris-Cl pH 7.3, 10 mM NaN3, 0.01% BSA, and 0.05% Tween-20. Mitochondrial membranes (2-5 μg protein) were added to the buffer, followed by oxidized equine cytochrome C (Sigma) at a final concentration of 50 μM. Reactions were initiated by adding decylubiquinol to a final concentration of 50 μM. Reaction progress was monitored by reading the increase in signal at 550 nm on a Tecan Evo plate reader. […] All measurements were performed in triplicate.

[4] = tested on: Saccharomyces cerevisiae strain W303-1a; test: In vivo inhibition of fungal respiration (growth on glycerol); format: cell-based; settings: glycerol medium, 48 hours
Experimental: Saccharomyces cerevisiae (S. cerevisiae) strain W303-1a was grown overnight in Yeast-Peptone-Dextrose media, washed, and diluted into Yeast Nitrogen Base media with 2.5% glycerol containing compounds at a range of dilutions.

human Complex III = biological target: T1, human Complex III (Homo sapiens, UniProt P00156); test: In vitro inhibition of Complex III, human enzyme; format: biochemical; settings: FIG. 14A curve 2
T1 construct: Mitochondrial membranes were prepared from yeast (Meisinger et al., Methods Mol. Biol. 2006, 313:33-9.) or HEK293 cells; endogenous in cells; host or cells: HEK293 cells (mitochondrial membranes)
Experimental: as §2

Aspergillus terreus = Aspergillus terreus susceptibility test (CLSI M38-A2); format: cell-based
Experimental: Aspergillus terreus (A. terreus) susceptibility testing was performed as described in Clinical Laboratory Standards Institute document […]-A2 (CLSI […]-A2) (CLSI. Reference Method for Broth Dilution Antifungal Susceptibility Testing of Filamentous Fungi; Approved Standard-Second Edition. CLSI, 940 West Valley Road, Suite 1400, Wayne, Pa. 19087-1898 USA, 2003).

[5] = biological target: cytochrome B of yeast S. cerevisiae (wild type) (Saccharomyces cerevisiae, UniProt P00163); test: biochemical
fungus = settings: read-out: IC50, single-agent antifungal activity; cited from earlier work
C. albicans [6] = settings: cited from earlier work
C. albicans [7] = test: Candida albicans susceptibility test (CLSI M27-A3); format: cell-based; settings: FIG. 9
Experimental: Candida albicans susceptibility testing was performed as described in Clinical Laboratory Standards Institute document M27-A3 (CLSI M27-A3) (CLSI. Reference Method for Broth Dilution Antifungal Susceptibility Testing of Yeasts; Approved Standard—Third Edition. CLSI, 940 West Valley Road, Suite 1400, Wayne, Pa. 19087-1898 USA, 2003).

OC(Cn1cncn1)(Cn1cncn1)c1ccc(F)cc1F [fluconazole, reference compound]
MIC (CaCi-8): 8 µg/mL | Effect on SC5314 [1]: cytostatic, but not cytotoxic | MIC (CaCi-2): 2 µg/mL | inhibition at 8 µg/mL (C. albicans CaCi-2): 60 to 80% | Effect on CaCi-2 [2]: not cytostatic or cytotoxic

COC(=O)Cn1nc(-c2ccccc2)c2ccccc21 [Compound I-3]
Inhibitory activity against resistant S. cerevisiae [3]: showed inhibitory activity | Inhibitory activity against S. cerevisiae (respiratory growth) [4]: completely inhibits respiratory growth; also recorded: shows inhibitory activity | Inhibition of human Complex III in vitro (human Complex III): active | Inhibitory activity against A. terreus (Aspergillus terreus): shows inhibitory activity | IC50 [5]: ~600 nM

Plagiochin E
IC50 (fungus): 3800 nM | Concentration that increased yeast susceptibility to fluconazole (C. albicans [6]): 2.4 µM

c1ccc(COc2cccc(-c3nn(Cc4nnco4)c4ccccc34)c2)cc1 [Compound I-52]
Inhibition of C. albicans in absence and presence of fluconazole (FCZ) (C. albicans [7]): more active in inhibiting C. albicans in presence of fluconazole (FCZ) than in absence thereof | Inhibitory activity against S. cerevisiae (respiratory growth) [4]: shows inhibitory activity | Inhibitory activity against A. terreus (Aspergillus terreus): shows inhibitory activity
